Molecular target: T1, Mandelate racemase (Pseudomonas putida, UniProt P11444)
T1 sequence (P11444 whole entry): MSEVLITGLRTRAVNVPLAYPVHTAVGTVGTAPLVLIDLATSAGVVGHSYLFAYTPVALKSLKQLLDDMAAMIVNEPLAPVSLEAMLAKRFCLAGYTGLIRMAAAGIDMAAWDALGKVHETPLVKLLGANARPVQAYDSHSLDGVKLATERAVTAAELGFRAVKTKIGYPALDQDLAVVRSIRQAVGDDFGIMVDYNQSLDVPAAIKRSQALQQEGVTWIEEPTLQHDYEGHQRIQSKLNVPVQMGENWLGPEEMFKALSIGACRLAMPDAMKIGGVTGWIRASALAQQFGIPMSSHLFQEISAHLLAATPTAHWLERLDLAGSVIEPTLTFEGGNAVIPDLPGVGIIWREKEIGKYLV
Assay: Circular Dichroism (CD) Based Assays
Conditions: pH 7.5
Procedure: MR activity was assayed using a CD-based assay by following the change in ellipticity of mandelate at 262 nm using a thermostated quartz cuvette with a 1-cm light path (unless otherwise indicated) as described by Sharp et al. Allassays (total volume of 2 mL) were conducted at 25 °C in Na+ HEPES buffer (0.1 M, pH 7.5) containing MgCl2 (3.3 mM), BSA [0.005% (w/v)], and (R)-mandelate as the substrate. The concentration of MR was determined from its absorbance at 280 nm using an extinction coefficient of 53400 M^−1 cm^−1.

SMILES | Ki
O=C(O)C(=O)CF [3-fluoro-2-oxopropanoate] | 1300 µM
O=C(O)C(=O)C(=O)O [Mesoxalate] | 1800 µM

Source: BindingDB's records for doi:10.1021/acs.biochem.5b00221 (Dalhousie University, 2015)
